# Legend:
# RCC4 = assay: XTT IC50 / viability assay, RCC4 cells; assay type: cell-based, human; settings: Homo sapiens, RCC4, 96 h; XTT assay, four days
# Procedure, shortened: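 RCC4 parental and VHL-reintroduced RCC4/VHL cells (DMEM, 10% FCS) treated with serially diluted drug for four days. Viability by XTT (0.3 mg/mL) with N-methyl dibenzopyrazine methyl sulfate, 1–2 h at 37 °C, absorbance 450 nm; IC50 by linear interpolation.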
melting point,SMILES,IC50 (RCC4)
191 to 193 °C,"CC(C)(C)c1ccc(S(=O)(=O)NCc2ccc(C(=O)Nc3cccnc3[N+](=O)[O-])cc2)cc1 [Example 116, 4-({[(4-tert-Butylphenyl)sulfonyl]amino}methyl)-N-(2-nitro-3-pyridinyl)benzamide]",> 20 µM
218 to 221 °C,"Cc1c(Cl)cccc1S(=O)(=O)NCc1ccc(C(=O)Nc2cccnc2)cc1 [Example 68, 4-((3-Chloro-2-methylphenylsulfonamido)methyl)-N-(pyridin-3-yl)benzamide]",> 20 µM
254 to 257 °C,"CC(C)(C)c1ccc(S(=O)(=O)NCc2ccc(C(=O)Nc3ccc(F)nc3)cc2)cc1 [Example 120, 4-({[(4-tert-Butylphenyl)sulfonyl]amino}methyl)-N-(6-fluoro-3-pyridinyl)benzamide]",> 20 µM
238 to 240 °C,"COc1ccc(NC(=O)c2ccc(CNS(=O)(=O)c3ccc(C(C)(C)C)cc3)cc2)cn1 [Example 110, 4-({[(4-tert-Butylphenyl)sulfonyl]amino}methyl)-N-(6-methoxy-3-pyridinyl)benzamide]",> 20 µM
207 to 210 °C,"O=C(Nc1cccnc1)c1ccc(CNS(=O)(=O)c2ccc(C#CCO)cc2)cc1 [Example 103, 4-[({[4-(3-Hydroxy-1-propynyl)phenyl]sulfonyl}amino)methyl]-N-(3-pyridinyl)benzamide]",> 20 µM
189 to 191 °C,"O=C(Nc1nccs1)c1ccc(CNS(=O)(=O)c2ccccc2)cc1 [Example 4, 4-(Phenylsulfonamidomethyl)-N-(thiazol-2-yl)benzamide]",> 20 µM
234 to 237 °C,"O=C(Nc1cccnc1)c1ccc(CNS(=O)(=O)c2ccccc2C(F)(F)F)cc1 [Example 15, N-(pyridin-3-yl)-4-((2-(trifluoromethyl)phenylsulfonamido)methyl)benzamide]",> 20 µM
241 to 243 °C,"O=C(Nc1cccnc1)c1ccc(CNS(=O)(=O)c2ccc([N+](=O)[O-])cc2)cc1 [Example 51, 4-((4-Nitrophenylsulfonamido)methyl)-N-(pyridin-3-yl)benzamide]",> 20 µM
230 to 231 °C,"O=C(Nc1ccc[n+]([O-])c1)c1ccc(CNS(=O)(=O)c2ccccc2)cc1 [Example 93, N-(1-Oxido-3-pyridinyl)-4-((phenylsulfonamido)methyl)-benzamide]",> 20 µM
249 to 252 °C,"CC(C)(C)c1ccc(S(=O)(=O)NCc2ccc(C(=O)Nc3ccc(C(F)(F)F)nc3)cc2)cc1 [Example 118, 4-({[(4-tert-Butylphenyl)sulfonyl]amino}methyl)-N-[6-(trifluoromethyl)-3-pyridinyl]benzamide]",> 20 µM
270 to 273 °C,O=C(Nc1ccncc1)c1ccc(CNS(=O)(=O)c2ccc(I)cc2)cc1 [Example 99],> 20 µM
212 to 215 °C,"COC(=O)c1ccc(S(=O)(=O)NCc2ccc(C(=O)Nc3cccnc3)cc2)cc1 [Example 47, Methyl 4-(N-(4-(Pyridin-3-ylcarbamoyl)benzyl)sulfamoyl)benzoate]",> 20 µM
183 to 185 °C,"Cc1ccncc1NC(=O)c1ccc(CNS(=O)(=O)c2ccc(C(C)(C)C)cc2)cc1 [Example 114, 4-({[(4-tert-Butylphenyl)sulfonyl]amino}methyl)-N-(4-methyl-3-pyridinyl)benzamide]",> 20 µM
188 to 190 °C,"Cc1ncccc1NC(=O)c1ccc(CNS(=O)(=O)c2ccc(C(C)(C)C)cc2)cc1 [Example 108, 4-({[(4-tert-Butylphenyl)sulfonyl]amino}methyl)-N-(2-methyl-3-pyridinyl)benzamide]",> 20 µM
219 to 220 °C,"COc1ccc(C(=O)NCc2ccc(C(=O)Nc3cccnc3)cc2)cc1OC [Example 88, 3,4-Dimethoxy-N-(4-(pyridin-3-ylcarbamoyl)benzyl)benzamide]",> 20 µM
172 to 174 °C,"COCCCc1ccc(S(=O)(=O)NCc2ccc(C(=O)Nc3cccnc3)cc2)cc1 [Example 101, 4-[({[4-(3-Methoxypropyl)phenyl]sulfonyl}amino)methyl]-N-(3-pyridinyl)benzamide]",1 to 20 µM
217 to 219 °C,"CC(C)(C)c1ccc(S(=O)(=O)NCc2ccc(C(=O)Nc3cncc(Cl)c3)cc2)cc1 [Example 115, 4-({[(4-tert-Butylphenyl)sulfonyl]amino}methyl)-N-(5-chloro-3-pyridinyl)benzamide]",> 20 µM
242 to 244 °C,"CC(C)(C)c1ccc(S(=O)(=O)NCc2ccc(C(=O)Nc3ccc(Br)nc3)cc2)cc1 [Example 125, N-(6-Bromo-3-pyridinyl)-4-({[(4-tert-butylphenyl)sulfonyl]amino}methyl)benzamide]",> 20 µM
189 to 191 °C,"Cc1cncc(NC(=O)c2ccc(CNS(=O)(=O)c3ccc(C(C)(C)C)cc3)cc2)c1 [Example 107, 4-({[(4-tert-Butylphenyl)sulfonyl]amino}methyl)-N-(5-methyl-3-pyridinyl)benzamide]",> 20 µM
180 to 182 °C,"O=C(Nc1cc[nH]n1)c1ccc(CNS(=O)(=O)c2ccccc2)cc1 [Example 5, 4-(Phenylsulfonamidomethyl)-N-(1H-pyrazol-3-yl)benzamide]",> 20 µM
235 to 237 °C,"Cc1ccc(NC(=O)c2ccc(CNS(=O)(=O)c3ccc(C(C)(C)C)cc3)cc2)cn1 [Example 109, 4-({[(4-tert-Butylphenyl)sulfonyl]amino}methyl)-N-(6-methyl-3-pyridinyl)benzamide]",> 20 µM
180 to 182 °C,"O=C(Nc1ncccn1)c1ccc(CNS(=O)(=O)c2ccccc2)cc1 [Example 9, 4-(Phenylsulfonamidomethyl)-N-(pyrimidin-2-yl)benzamide]",> 20 µM
177 to 179 °C,"CCCN(Cc1ccc(C(=O)Nc2cccnc2)cc1)S(=O)(=O)c1ccc(C(C)(C)C)cc1 [Example 140, 4-{[[(4-tert-Butylphenyl)sulfonyl](propyl)amino]methyl}-N-(3-pyridinyl)benzamide]",> 20 µM
186 to 188 °C,"O=C(Nc1cnc2ccccc2c1)c1ccc(CNS(=O)(=O)c2ccccc2)cc1 [Example 6, 4-(Phenylsulfonamidomethyl)-N-(quinolin-3-yl)benzamide]",> 20 µM
240 to 243 °C,"CC(=O)Nc1ccc(NC(=O)c2ccc(CNS(=O)(=O)c3ccc(C(C)(C)C)cc3)cc2)cn1 [Example 119, N-[6-(Acetylamino)-3-pyridinyl]-4-({[(4-tert-butylphenyl)sulfonyl]amino}methyl)benzamide]",> 20 µM
200 to 202 °C,"O=C(Nc1cnccn1)c1ccc(CNS(=O)(=O)c2ccccc2)cc1 [Example 8, 4-(Phenylsulfonamidomethyl)-N-(pyrazin-2-yl)benzamide]",> 20 µM
155 to 157 °C,"COC(=O)c1ccccc1S(=O)(=O)NCc1ccc(C(=O)Nc2cccnc2)cc1 [Example 14, Methyl 2-(N-(4-(Pyridin-3-ylcarbamoyl)benzyl)sulfamoyl)benzoate]",> 20 µM
227 to 229 °C,"O=C(Nc1cccnc1)c1ccc(CNS(=O)(=O)c2ccc(-c3cccc(C(F)(F)F)c3)cc2)cc1 [Example 134, N-(3-Pyridinyl)-4-[({[3′-(trifluoromethyl)[1,1′-biphenyl]-4-yl]sulfonyl}amino)methyl]benzamide]",> 20 µM
181 to 182 °C,"COC(=O)CCc1ccc(S(=O)(=O)NCc2ccc(C(=O)Nc3cccnc3)cc2)cc1 [Example 41, Methyl 3-{4-[({4-[(3-Pyridinylamino)carbonyl]benzyl}amino)sulfonyl]phenyl}propanoate]",> 20 µM
214 to 217 °C,"CC(C)(C)c1ccc(S(=O)(=O)NCc2ccc(C(=O)Nc3cncc(F)c3)cc2)cc1 [Example 121, 4-({[(4-tert-Butylphenyl)sulfonyl]amino}methyl)-N-(5-fluoro-3-pyridinyl)benzamide]",> 20 µM

# — US20120225862A1, “HETEROARYL BENZAMIDES, COMPOSITIONS AND METHODS OF USE” (AUCKLAND UNIVSERVICES LIMITED, priority 2009, published 2012)
